Data published in patent US20210388364A1, “METHOD FOR DETECTING A SPECIFIC SPLICE EVENT OF A GENE OF INTEREST” (Helmholtz Zentrum Müncher - Deutsches Forschungszentrum Für …, priority 2019, published 2021).

Experiments:
HEK-293T cells = assay: Blasticidin-S survival selection of HEK-293T cells with or without bsd-intein in FOXP1 exon 18b; assay type: cell-based, human
From the text: To knock-out MBNL1/2 (mucleblind-like protein 1/2, SEQ ID NO: 62 and SEQ ID NO: 63) in HEK293T cell cells which carries a blasticidin resistance gene flanked by inteins within the FOXP1 exon 18b, two plasmids expressing a mammalian codon-optimized Cas9 from S. pyogenes (SpCas9, SpyCas9) with a tandem C-terminal SV40 nuclear localization signal (SV40 NLS) via a CBh hybrid RNA-polymerase II promoter and human U6 driving a single-guide-RNA (sgRNA, gRNA) for SpyCas9 (SEQ ID NO: 23) with a cloned protospacer targeting MBNL1 and MBNL2 were co-transfected into the cells. 72 h later, cells were replated in a proper format and medium were supplemented with indicated blasticidin concentration. Control condition were transfected with the same conditions but the sgRNA is targeting the control locus AAVS1 (PPP1R12C) (safe-harbor locus AAVSI intronic region, SEQ ID NO. 64). Genomic DNA was isolated from blasticidin-treated surviving colonies with Wizard® Genomic DNA Purification Kit (Promega).
Next, the inventors checked whether the KO of reported suppressors of FOXP1 exon 18b by knocking out their constitutive exon of MBNL1 and MBNL2 are able to confer survival of the cells upon treatment with bs compared to a control condition where gRNA targeting the safe-harbor AAVS1 locus (PPP1R12C) was transfected instead. […]

Oaz1 = assay: FACS analysis of Oaz1-EXSISERS-transfected cells treated with polyamines (ribosomal frameshift readout); assay type: cell-based; settings: increasing polyamine concentrations, verified by immunoblot
From the text: FIG. 7: Non-invasive protein-level quantification of co-translation regulation. […] Rising polyamine levels lead to a +1 frameshift and skipping of the in-frame stop codon leading to the full-length Oaz1 antizyme. The usage of the in-frame stop codon will otherwise lead to truncated non-functional Oaz1. Full-length Oaz1 binds and inactivates the enzyme Odc, the rate-limiting enzyme in the polyamine biosynthesis pathway, resulting in a product-mediated closed-loop homeostatic regulation of polyamine levels. […] Transfected (blue cells) cells were analyzed by counting the fraction of blue cells passing the green gate which is set to contain the 25% greenest cells in the untreated condition (0 mM).
Ribosomal frameshift-mediated regulations cannot be monitored by RT-qPCR or other RNA-based quantification methods. Exemplary, Oaz1, […] (FIG. 7a) was chosen, since it was known to be regulated by polyamine. gp41-1 split-inteins-flanked mNeonGreen and NrdJ-1-split-inteins-flanked mTagBFP2 were inserted into the full-length Oaz1 gene and transfected cells were treated with increasing polyamine concentrations to determine whether frameshift regulation could be read out via fluorescence quantification (FIG. 7b).

| Structure (SMILES) | cell survival (HEK-293T cells; bs 5 to 12.5 μg/mL, reporter cells, control gRNA targeting AAVS1) | cell survival (HEK-293T cells; unmodified HEK-293T cells, targeting MBNL1 and MBNL2 or AAVS1) | stop codon readthrough (Oaz1) |
| --- | --- | --- | --- |
| CN(CC[C@H](N)CC(=O)N[C@H]1C=C[C@H](n2ccc(N)nc2=O)O[C@@H]1C(=O)O)C(=N)N [bs, blasticidin-S] | no survival | no cells survived | – |
| NCCCCNCCCN [spermidine] | – | – | stimulated |
| NCCCNCCCCNCCCN [spermine] | – | – | stimulated |
